Article PMC11845761, “Intestinal human carboxylesterase 2 (CES2) expression rescues drug metabolism and most metabolic syndrome phenotypes in global Ces2 cluster knockout mice” (Acta Pharmacologica Sinica, 2024)
Where two headings read alike, the source gives them in different places.

What was measured:
[1] = Tissue concentrations of vinorelbine and deacetylvinorelbine 4 h after oral vinorelbine in CES2-modified mice; type: in vivo, mouse; conditions: male, mouse, oral, 10 mg/kg, oral vinorelbine 10 mg/kg
Protocol: (§1) For capecitabine 2-h experiments, 6–7 female mice received oral capecitabine (500 mg/kg, 10 μL/g), and tail vein blood samples were collected at 0.125, 0.25, 0.5 and 1 h after drug administration. For the vinorelbine 4-h experiment, 6-7 male mice received vinorelbine intravenously (10 mg/kg, 5 μL/g) or orally (10 mg/kg, 10 μL/g) using a blunt-ended needle. Tail vein blood samples were collected at 0.125, 0.25, 0.5, 1 and 2 h after drug administration. […] At the last time point in each experiment (2 or 4 h), mice were anesthetized with 5% isoflurane and blood was collected by cardiac puncture. […] Plasma was isolated from the blood by centrifugation at 9000 × g for 6 min at 4 °C, and the plasma fraction was collected and stored at −30 °C until analysis.
(§2) Concentrations of capecitabine (and its metabolites) and vinorelbine (and its metabolite) in mouse plasma samples and organ homogenates were determined using two independent validated high-performance liquid chromatography-tandem mass spectrometry assays.
(§3) Pharmacokinetic parameters were calculated by non-compartmental methods using the PK solver software. […] Differences were considered statistically significant when P < 0.05. All data are presented as mean ± SD.

[2] = parameters: method as in PMID 11822766; conditions: 24 patients; oral vinorelbine 80 mg/m^2; cited from earlier work
[3] = Tissue concentrations of vinorelbine and deacetylvinorelbine 4 h after i.v. vinorelbine in CES2-modified mice; type: in vivo, mouse; conditions: male, mouse, intravenous, 10 mg/kg, i.v. vinorelbine 10 mg/kg
Protocol: as §1, §2, §3

[4] = Plasma pharmacokinetics of vinorelbine and deacetylvinorelbine after oral vinorelbine in CES2-modified mice; type: in vivo, mouse; conditions: mouse, plasma, oral vinorelbine 10 mg/kg, plasma; for AUC(0-t): male, po, 10 mg/kg, read-out: AUC0-4h; for Cmax: read-out: Cmax; for Tmax: read-out: Tmax
Protocol: as §1, §2, §3

[5] = Plasma pharmacokinetics of vinorelbine and deacetylvinorelbine after i.v. vinorelbine in CES2-modified mice; conditions: male, mouse, plasma, iv, 10 mg/kg, AUC0-4h, i.v. vinorelbine 10 mg/kg
Protocol: In order to minimize variation among individuals, mice were fasted for 3 h before drug was administered orally or intravenously. […] For the vinorelbine 4-h experiment, 6-7 male mice received vinorelbine intravenously (10 mg/kg, 5 μL/g) or orally (10 mg/kg, 10 μL/g) using a blunt-ended needle. […] Time points of termination were chosen to allow both reasonable assessment of the plasma exposure of the compound and its main metabolites, and adequate measurement of tissue concentrations. In order to minimize the generation and use of mice, and as no pronounced sex differences were expected, female mice were used for the capecitabine studies and male mice for the vinorelbine studies. Tail vein blood sample collection (~50 μL) was performed using microvettes containing dipotassium-EDTA. All blood samples were rapidly placed on ice to limit any ongoing hydrolysis. At the last time point in each experiment (2 or 4 h), mice were anesthetized with 5% isoflurane and blood was collected by cardiac puncture. Cardiac puncture blood samples (600–800 μL) were collected in Eppendorf tubes containing heparin as an anticoagulant. The mice were then sacrificed by cervical dislocation and brain, liver, kidney, lung, small intestine and testis were rapidly removed. Plasma was isolated from the blood by centrifugation at 9000 × g for 6 min at 4 °C, and the plasma fraction was collected and stored at −30 °C until analysis. Organs were homogenized with 4% (w/v) bovine serum albumin and stored at −30 °C until analysis. Relative metabolite-to-parental drug ratio after drug administration was calculated by determining metabolite tissue concentration relative to corresponding parental drug concentration at the last time point.
as §2
Pharmacokinetic parameters were calculated by non-compartmental methods using the PK solver software. The area under the plasma concentration-time curve (AUC) was calculated using the trapezoidal rule, without extrapolating to infinity. The peak plasma concentration (Cmax) and the time of maximum plasma concentration (Tmax) were estimated from the original (individual mouse) data. One-way analysis of variance (ANOVA) was used when multiple groups were compared and the Tukey’s test post hoc correction was used to accommodate multiple testing. The two-sided unpaired Student’s t-test was used when treatments or differences between two specific groups were compared. Kruskal-Wallis rank test was used for semi-quantitative assessment for (H&E)-staining of white adipose tissue and Oil Red O-staining of liver. All statistical analyses were performed using the software GraphPad Prism 8 (GraphPad Software Inc., La Jolla, CA, USA). All the linear data were log-transformed before statistical tests were applied. Differences were considered statistically significant when P < 0.05. All data are presented as mean ± SD.

[6] = colon, male Ces2^–/– mice, read-out: Ccolon (colon concentration)
[7] = colon, male Ces2^–/–A mice, read-out: Ccolon (colon concentration)
[8] = colon, male Ces2^–/–V mice, read-out: Ccolon (colon concentration)
[9] = colon, male wild-type mice, read-out: Ccolon (colon concentration)
[10] = liver, male Ces2^–/– mice, read-out: Cliver (liver concentration)
[11] = liver, male Ces2^–/–A mice, read-out: Cliver (liver concentration)
[12] = liver, male Ces2^–/–V mice, read-out: Cliver (liver concentration)
[13] = liver, male wild-type mice, read-out: Cliver (liver concentration)
[14] = small intestine contents, male Ces2^–/– mice, read-out: CSIC (small intestine contents concentration)
[15] = small intestine contents, male Ces2^–/–A mice, read-out: CSIC (small intestine contents concentration)
[16] = small intestine contents, male Ces2^–/–V mice, read-out: CSIC (small intestine contents concentration)
[17] = small intestine contents, male wild-type mice, read-out: CSIC (small intestine contents concentration)
[18] = small intestine tissue, male Ces2^–/– mice, read-out: CSI (small intestine tissue concentration)
[19] = small intestine tissue, male Ces2^–/–A mice, read-out: CSI (small intestine tissue concentration)
[20] = small intestine tissue, male Ces2^–/–V mice, read-out: CSI (small intestine tissue concentration)
[21] = small intestine tissue, male wild-type mice, read-out: CSI (small intestine tissue concentration)

With CCC1=C[C@@H]2CN(C1)Cc1c([nH]c3ccccc13)[C@@](C(=O)OC)(c1cc3c(cc1OC)N(C)[C@H]1[C@@](O)(C(=O)OC)[C@H](OC(C)=O)[C@]4(CC)C=CCN5CC[C@]31[C@@H]54)C2 [Vinorelbine, reference compound] the concentration at 4 h [1, 6] was 581 ± 175 ng/g, the concentration at 4 h [1, 7] was 788 ± 189 ng/g and the concentration at 4 h [1, 8] was 608 ± 203 ng/g. The concentration at 4 h [1, 9] was 348 ± 136 ng/g, the concentration at 4 h [1, 10] was 8470 ± 8150 ng/g and the concentration at 4 h [1, 11] was 8520 ± 3440 ng/g. It also gave a concentration at 4 h [1, 12] of 8300 ± 2000 ng/g, a concentration at 4 h [1, 13] of 1530 ± 409 ng/g and a concentration at 4 h [1, 14] of 159000 ± 46700 ng/g. It also gave a concentration at 4 h [1, 15] of 177000 ± 73000 ng/g, a concentration at 4 h [1, 16] of 114000 ± 19400 ng/g and a concentration at 4 h [1, 17] of 77000 ± 29300 ng/g. For the same compound, the concentration at 4 h [1, 18] was 18300 ± 4300 ng/g, the concentration at 4 h [1, 19] was 18100 ± 3650 ng/g and the concentration at 4 h [1, 20] was 15600 ± 6980 ng/g. The concentration at 4 h [1, 21] was 10800 ± 3700 ng/g, the “plasma Cmax” value [2] was 133.4 ± 42.3 ng/mL and the concentration at 4 h [3, 6] was 5620 ± 3000 ng/g. The concentration at 4 h [3, 7] was 5780 ± 3090 ng/g, the concentration at 4 h [3, 8] was 6740 ± 1470 ng/g and the concentration at 4 h [3, 9] was 2360 ± 692 ng/g. For the same compound, the concentration at 4 h [3, 10] was 23400 ± 6110 ng/g, the concentration at 4 h [3, 11] was 24300 ± 3720 ng/g and the concentration at 4 h [3, 12] was 24700 ± 4450 ng/g. The concentration at 4 h [3, 13] was 12200 ± 4960 ng/g, the concentration at 4 h [3, 14] was 40100 ± 25500 ng/g and the concentration at 4 h [3, 15] was 47200 ± 30900 ng/g. For the same compound, the concentration at 4 h [3, 16] was 48400 ± 27000 ng/g, the concentration at 4 h [3, 17] was 27700 ± 13400 ng/g and the concentration at 4 h [3, 18] was 5920 ± 1350 ng/g. The concentration at 4 h [3, 19] was 5600 ± 644 ng/g, the concentration at 4 h [3, 20] was 7680 ± 2240 ng/g and the concentration at 4 h [3, 21] was 3470 ± 858 ng/g. It also gave an AUC(0-t) ([4]; male Ces2^–/– mice) of 491 ± 135 ng·h/mL, an AUC(0-t) ([4]; male Ces2^–/–A mice) of 730 ± 270 ng·h/mL and an AUC(0-t) ([4]; male Ces2^–/–V mice) of 585 ± 186 ng·h/mL. It also gave an AUC(0-t) ([4]; male wild-type mice) of 362 ± 81 ng·h/mL, a Cmax ([4]; male Ces2^–/– mice) of 188 ± 63 ng/mL and a Tmax ([4]; male Ces2^–/– mice) of 1.9 ± 1.9 h. It also gave a Cmax ([4]; male Ces2^–/–A mice) of 333 ± 99 ng/mL, a Tmax ([4]; male Ces2^–/–A mice) of 1.3 ± 0.9 h and a Cmax ([4]; male Ces2^–/–V mice) of 243 ± 110 ng/mL. The Tmax ([4]; male Ces2^–/–V mice) was 2.4 ± 1.5 h, the Cmax ([4]; male wild-type mice) was 149 ± 59 ng/mL and the Tmax ([4]; male wild-type mice) was 1.7 ± 0.7 h. For the same compound, the AUC(0-t) ([5]; male Ces2^–/– mice) was 6040 ± 1950 ng·h/mL, the AUC(0-t) ([5]; male Ces2^–/–A mice) was 5950 ± 3250 ng·h/mL and the AUC(0-t) ([5]; male Ces2^–/–V mice) was 9790 ± 5670 ng·h/mL. It also gave an AUC(0-t) ([5]; male wild-type mice) of 8140 ± 4780 ng·h/mL.
